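96-well plates; 48 h exposure; 5 concentrations. Endpoints by linear interpolation between flanking doses. Not reached: highest tested concentration assigned. TGI is the concentration that stops growth completely.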
Legend:
Test in all cases: growth of human tumour cells (NCI), 48 h
[1] = system: OVCAR-5 ovarian
[2] = system: A549 NSCLC
[3] = system: XF 498 CNS
[4] = system: SNB-19 CNS
[5] = system: EKVX NSCLC
[6] = system: SNB-75 CNS
[7] = system: HCC-2998 colon
[8] = system: RXF 393 renal
[9] = system: HOP-92 NSCLC
[10] = system: HCT-116 colon
[11] = system: SF-295 CNS
[12] = system: UACC-257 melanoma
[13] = system: SW-620 colon
[14] = system: IGROV1 ovarian
[15] = system: OVCAR-3 ovarian
[16] = system: NCI-H522 lung
[17] = system: COLO 205 colon
[18] = system: MOLT-4 leukemia
[19] = system: CAKI-1 renal
[20] = system: SF-268 CNS
[21] = system: UO-31 renal
[22] = system: SF-539 CNS
[23] = system: KM12 colon
[24] = system: 786-0 renal
[25] = system: SK-MEL-28 melanoma
[26] = system: UACC-62 melanoma
[27] = system: SR leukemia
[28] = system: A498 renal
[29] = system: SN12C renal
[30] = system: DMS 273 small cell lung
[31] = system: TK-10 renal
[32] = system: KM20L2 colon
[33] = system: LXFL 529 NSCLC
[34] = system: HL-60(TB) leukemia
[35] = system: NCI-H23 lung
[36] = system: OVCAR-8 ovarian
[37] = system: K-562 leukemia
[38] = system: M14 melanoma
[39] = system: SK-OV-3 ovarian
[40] = system: RXF-631 renal
[41] = system: HT29 colon
[42] = system: ACHN renal
[43] = system: M19-MEL melanoma
[44] = system: NCI-H460 lung
[45] = system: HOP-18 NSCLC
[46] = system: NCI-H226 lung
[47] = system: MALME-3M melanoma
[48] = system: DLD-1 colon
[49] = system: DMS 114 small cell lung
[50] = system: RPMI-8226 leukemia
[51] = system: LOX IMVI melanoma
[52] = system: CCRF-CEM leukemia
[53] = system: SNB-78 CNS
[54] = system: HCT-15 colon
[55] = system: HOP-62 NSCLC
[56] = system: U251 CNS
[57] = system: SK-MEL-5 melanoma

## Cc1c(C(=O)/C=C/c2ccco2)[n+](=O)c2ccccc2n1[O-]
[1]
  TGI: > 100 µM
[2]
  TGI: > 100 µM
[3]
  TGI: > 100 µM
[4]
  TGI: > 100 µM
[5]
  TGI: > 100 µM
[6]
  TGI: > 100 µM
[7]
  TGI: > 100 µM
[8]
  TGI: > 100 µM
[9]
  TGI: > 100 µM
[10]
  TGI: > 100 µM
[11]
  TGI: > 100 µM
[12]
  TGI: > 100 µM
[13]
  TGI: > 100 µM
[14]
  TGI: > 100 µM
[15]
  TGI: > 100 µM
[16]
  TGI: > 100 µM
[17]
  TGI: > 100 µM
[18]
  TGI: > 100 µM
[19]
  TGI: > 100 µM
[20]
  TGI: > 100 µM
[21]
  TGI: > 100 µM
[22]
  TGI: > 100 µM
[23]
  TGI: > 100 µM
[24]
  TGI: > 100 µM
[25]
  TGI: > 100 µM
[26]
  TGI: > 100 µM
[27]
  TGI: > 100 µM
[28]
  TGI: > 100 µM
[29]
  TGI: > 100 µM
[30]
  TGI: > 100 µM
[31]
  TGI: > 100 µM
[32]
  TGI: > 100 µM
[33]
  TGI: > 100 µM
[34]
  TGI: > 100 µM
[35]
  TGI: > 100 µM
[36]
  TGI: > 100 µM
[37]
  TGI: > 100 µM
[38]
  TGI: > 100 µM
[39]
  TGI: > 100 µM
[40]
  TGI: > 100 µM
[41]
  TGI: > 100 µM
[42]
  TGI: > 100 µM
[43]
  TGI: > 100 µM
[44]
  TGI: > 100 µM
[45]
  TGI: > 100 µM
[46]
  TGI: > 100 µM
[47]
  TGI: > 100 µM
[48]
  TGI: > 100 µM
[49]
  TGI: > 100 µM
[50]
  TGI: > 100 µM
[51]
  TGI: > 100 µM
[52]
  TGI: > 100 µM
[53]
  TGI: > 100 µM

## CCc1nc2ccccc2c(=O)n1/N=C(\N=Nc1ccc(Cl)cc1)c1ccc(N(C)C)cc1
[2]
  TGI: > 100 µM
[3]
  TGI: 80.7 µM
[5]
  TGI: > 100 µM
[54]
  TGI: > 100 µM
[8]
  TGI: > 100 µM
[9]
  TGI: 59 µM
[10]
  TGI: 73.6 µM
[55]
  TGI: 50 µM
[13]
  TGI: > 100 µM
[16]
  TGI: 66.9 µM
[17]
  TGI: 73.5 µM
[18]
  TGI: 92.2 µM
[20]
  TGI: > 100 µM
[21]
  TGI: 60.1 µM
[22]
  TGI: > 100 µM
[56]
  TGI: > 100 µM
[25]
  TGI: > 100 µM
[28]
  TGI: > 100 µM
[29]
  TGI: > 100 µM
[30]
  TGI: > 100 µM
[31]
  TGI: > 100 µM
[32]
  TGI: 69.9 µM
[33]
  TGI: > 100 µM
[34]
  TGI: 51.6 µM
[35]
  TGI: 92.4 µM
[36]
  TGI: > 100 µM
[37]
  TGI: 79.3 µM
[38]
  TGI: > 100 µM
[39]
  TGI: 99.4 µM
[57]
  TGI: 64.6 µM
[40]
  TGI: > 100 µM
[42]
  TGI: > 100 µM
[44]
  TGI: > 100 µM
[45]
  TGI: > 100 µM
[48]
  TGI: > 100 µM
[49]
  TGI: 47 µM
[50]
  TGI: 80.7 µM
[51]
  TGI: > 100 µM
[52]
  TGI: > 100 µM
